Reference: ChEMBL document CHEMBL4196245, “Structures and Antimutagenic Effects of Onoceranoid-Type Triterpenoids from the Leaves of Lansium domesticum” (2018)
Activity calls are given as the source filed them. The calls are words filed in the database; no cut-off is given here.

Experiments:
Salmonella typhimurium [1] = assay: Antimutagenic activity against Salmonella typhimurium TA98 assessed as inhibition of Trp-P-1-induced mutation at 100 nmol/plate measured in presence of S9 fraction by Ames test relative to control; type: functional, Salmonella enterica subsp. enterica serovar Typhimurium
Mus musculus = organism: Mus musculus; assay: Antimutagenic activity against PhIP-induced mutation in ICR mouse assessed as reduction in micronucleated reticulocytes at 0.03 to 0.06% w/w treated prior to PhIP addition measured 24 to 48 hrs post dose by fluorescence microscopic analysis; type: functional, organism-based
Salmonella typhimurium [2] = assay: Antimutagenic activity against Salmonella typhimurium TA98 assessed as inhibition of Trp-P-1-induced mutation at 80 nmol/plate measured in presence of S9 fraction by Ames test relative to control; type: functional, Salmonella enterica subsp. enterica serovar Typhimurium

C=C(C)[C@@H]1CC=C(C)[C@H](CC[C@H]2C(=C)CC[C@H]3C(C)(C)[C@@H](O)CC[C@]23C)[C@@]1(C)CCC(=O)O
inhibition (INH) (Salmonella typhimurium [1]): 73.8%

C=C(C)[C@@H]1CC=C(C)[C@H](CC[C@H]2C(=C)CC[C@H]3C(C)(C)C(=O)CC[C@]23C)[C@@]1(C)CCC(=O)O
Activity (Mus musculus): Active

C=C(C)[C@@H]1CC=C(C)[C@H](CC[C@H]2C(=C)CC[C@H]3C(C)(C)[C@@H](O)CC[C@]23C)[C@@]1(C)CCC(=O)OC
inhibition (INH) (Salmonella typhimurium [1]): 29.5%

C=C(C)[C@@H]1CC=C(C)[C@H](CC[C@H]2C(=C)CC[C@H]3C(C)(C)[C@@H](O)CC[C@]23C)[C@@]1(C)CCC(=O)OCC [ETHYL LANSIOLATE]
inhibition (INH) (Salmonella typhimurium [1]): 7.9%

COc1ccc(-c2cc(=O)c3c(OC)c(OC)c(OC)c(OC)c3o2)cc1OC [NOBILETIN]
inhibition (INH) (Salmonella typhimurium [2]): 56%
